Consider one compound from PMC11143257, “Atomistic mechanism of coupling between cytosolic sensor domain and selectivity filter in TREK K2P channels” (Nature Communications, 2024).

The target in the test is T1, WT TRAAK (Homo sapiens, UniProt Q9NYG8).
T1 construct: expressed in transfected cells; host or cells: Xenopus laevis oocytes (cRNA injection), excised inside-out patches
T1 sequence (Q9NYG8 1-393): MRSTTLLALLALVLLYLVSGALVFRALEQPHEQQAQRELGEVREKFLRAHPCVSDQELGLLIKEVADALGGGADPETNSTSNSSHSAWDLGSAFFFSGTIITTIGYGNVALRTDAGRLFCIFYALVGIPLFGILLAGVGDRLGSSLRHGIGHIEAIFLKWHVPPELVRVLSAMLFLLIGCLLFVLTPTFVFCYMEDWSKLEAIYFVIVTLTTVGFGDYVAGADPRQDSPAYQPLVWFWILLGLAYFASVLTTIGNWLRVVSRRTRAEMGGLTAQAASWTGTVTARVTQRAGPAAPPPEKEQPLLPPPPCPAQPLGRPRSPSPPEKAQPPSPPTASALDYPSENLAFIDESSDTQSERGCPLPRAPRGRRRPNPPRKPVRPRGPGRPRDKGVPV
In words: MTS probe modification, inside-out patch-clamp. The format is cell-based. Conditions: 100 µM decyl-MTS for at least 30 s, symmetrical K+, pH 7.4, +40 mV. How it is done: First, we measured WT TREK-1, WT TRAAK and TREK-2^* channels without modifiable cysteine residues as references. Upon application of 100 µM of decyl-MTS for at least 30 s to the respective channel in excised membrane patches, no change in current amplitudes was recognized (Fig. 2a and Supplementary Fig. 2a, b). Note, that patch integrity and channel regulation were tested with either 1 mM tetra-pentyl-ammonium (TPenA) and a short pHi activation step. Next, we conducted systematic cysteine scanning mutagenesis of the entire pCt and examined the effect of charged and aliphatic MTS probes. […] Remarkably, all hit residues face toward the inner leaflet of the lipid bilayer (Fig. 2b, inlay).
Xenopus laevis oocytes were surgically removed from anesthetized adult females, treated with type II collagenase (Sigma-Aldrich/Merck, Germany) and manually defolliculated. […] Currents were recorded with an EPC10 amplifier (HEKA electronics, Germany) and sampled at 10 kHz or higher and filtered with 3 kHz (-3 dB) or higher as appropriate for the sampling rate. […]
The fold current increase (fold activation) of a ligand (decyl-MTS) was calculated from the following equation:1 FoldactivationFA=Iactivated/Ibasal with Iactivated represents the stable current level in the presence of 100 µM decyl-MTS and Ibasal the measured current before application of the MTS probe.

Entries after “also recorded” stand apart in the source; their conditions may differ.

For the compound `CCCCCCCCCCSS(C)(=O)=O` [decyl-MTS, Decyl-MethaneThioSulfonate], the “effect on current amplitude” value is “no change; also recorded: no effect”.
